The values below are quoted from earlier work in patent EP0388817A2, “Use of mixed micelles and mixed micelle solutions of immunomodulators” (F. Hoffmann-La Roche AG, priority 1989, dated 1990).

The conditions of this data set: octanol/water.

With Vitamin A, the “Verteilungskoeffizient in Octanol/Wasser” value is listed as > 10^6.

For Vitamin E, the “Verteilungskoeffizient in Octanol/Wasser” value was > 10^6.

For Vitamin K, the “Verteilungskoeffizient in Octanol/Wasser” value is > 10^6.
